According to patent publication US20250034498A1, “MICROFLUIDIC DEVICES” (Ecole Polytechnique Federale de Lausanne, priority 2021, published 2025):
“Also recorded” adds a separate entry of the source.

B1: Bone Morphogenetic Protein 4 (protein, UniProt P12644 293-408, looked up)
Bone morphogenetic protein 4: SPKHHSQRARKKNKNCRRHSLYVDFSDVGWNDWIVAPPGYQAFYCHGDCPFPLADHLNSTNHAIVQTLVNSVNSSIPKACCVPTELSAISMLYLDEYDKVVLKNYQEMVVEGCGCR
notes: dorsalizing morphogen

System: neural tube organoids
Test: dorsal-ventral patterning of neural tube organoids at the gradient window of the microfluidic device
Type: cell-based
Details: for identity of neural tube organoid (PAX3/7 dorsal marker, OLIG2 ventral marker): D6 organoids exposed 18 hours; for spatial patterning of neural tube organoid (PAX3/7 dorsal marker, OLIG2 ventral marker): anti-parallel gradient 1.6 nM BMP4 (L)-500 nM SAG (R), 18 hours
Procedure: In the present example, the organoid of interest was cultured in a Matrigel™ drop for six days then harvested, and the organoid was suspended in Matrigel™ and loaded into the culture chamber 130 and placed at the gradient window 150 via the loading channel 170. A small drop of N2B27 medium was placed in each of the first and second medium chambers or reservoirs 110, 120 for humidification, and the chip was incubated in a 5% CO2 and 37° C. incubator for 5 minutes to allow the Matrigel™ to polymerise. After incubation, the first and second chambers 110, 120 were filled with N2B27 medium supplemented with 1.6 nM of BMP4 as a dorsal morphogen and 500 nM of SAG as a ventral morphogen respectively, and residual air in the device was removed from the first and second air outlets 140-1, 140-2 to allow the morphogen-supplemented media to diffuse across the gradient window 150. The device containing the organoid was incubated in a 5% CO2 and 37° C. incubator for 18 hours.
A neural tube organoid was placed in the gradient window of the device where a dorsal-ventral morphogen gradient has developed, using BMP4 as a dorsal morphogen and SAG as a ventral morphogen. PAX3/7 was used as a marker for dorsal fate neural tube cell and OLIG2 was used as a marker for ventral fate neural tube cell.
As described above, the neural tube organoids from D6 were introduced in the microfluidic device and exposed to different morphogen gradients for 18 hours. All scale bars are 100 μm.

Molecule | identity of neural tube organoid (PAX3/7 dorsal marker, OLIG2 ventral marker) (N2B27 (L)-500 nM SAG (R)) | spatial patterning of neural tube organoid (PAX3/7 dorsal marker, OLIG2 ventral marker) | identity of neural tube organoid (PAX3/7 dorsal marker, OLIG2 ventral marker) (1.6 nM BMP4 (L)-N2B27 (R))
CNC1CCC(N(Cc2cccc(-c3ccncc3)c2)C(=O)c2sc3ccccc3c2Cl)CC1 (stereo not shown) [SAG] | dominant ventral identity expressing OLIG2 | OLIG2 positive cells were biased towards the SAG source; also recorded: OLIG2 biased to right side | –
B1 | – | PAX3/7 positive cells were biased towards the BMP4 source; also recorded: PAX3/7 biased to the left side | dorsal identity expressing PAX3/7
